Measurements reported in ChEMBL document CHEMBL2073883, “Interaction of docetaxel ("Taxotere") with human P-glycoprotein” (Jpn J Cancer Res, 1999).

Target: ATP-dependent translocase ABCB1 (Homo sapiens, UniProt P08183)
Test: TP_TRANSPORTER: transepithelial transport (basal to apical) in MDR1-expressing LLC-PK1 cells
Assay type: functional, cell-based
Settings: pig

Chain of ATP-dependent translocase ABCB1 (P08183 whole entry): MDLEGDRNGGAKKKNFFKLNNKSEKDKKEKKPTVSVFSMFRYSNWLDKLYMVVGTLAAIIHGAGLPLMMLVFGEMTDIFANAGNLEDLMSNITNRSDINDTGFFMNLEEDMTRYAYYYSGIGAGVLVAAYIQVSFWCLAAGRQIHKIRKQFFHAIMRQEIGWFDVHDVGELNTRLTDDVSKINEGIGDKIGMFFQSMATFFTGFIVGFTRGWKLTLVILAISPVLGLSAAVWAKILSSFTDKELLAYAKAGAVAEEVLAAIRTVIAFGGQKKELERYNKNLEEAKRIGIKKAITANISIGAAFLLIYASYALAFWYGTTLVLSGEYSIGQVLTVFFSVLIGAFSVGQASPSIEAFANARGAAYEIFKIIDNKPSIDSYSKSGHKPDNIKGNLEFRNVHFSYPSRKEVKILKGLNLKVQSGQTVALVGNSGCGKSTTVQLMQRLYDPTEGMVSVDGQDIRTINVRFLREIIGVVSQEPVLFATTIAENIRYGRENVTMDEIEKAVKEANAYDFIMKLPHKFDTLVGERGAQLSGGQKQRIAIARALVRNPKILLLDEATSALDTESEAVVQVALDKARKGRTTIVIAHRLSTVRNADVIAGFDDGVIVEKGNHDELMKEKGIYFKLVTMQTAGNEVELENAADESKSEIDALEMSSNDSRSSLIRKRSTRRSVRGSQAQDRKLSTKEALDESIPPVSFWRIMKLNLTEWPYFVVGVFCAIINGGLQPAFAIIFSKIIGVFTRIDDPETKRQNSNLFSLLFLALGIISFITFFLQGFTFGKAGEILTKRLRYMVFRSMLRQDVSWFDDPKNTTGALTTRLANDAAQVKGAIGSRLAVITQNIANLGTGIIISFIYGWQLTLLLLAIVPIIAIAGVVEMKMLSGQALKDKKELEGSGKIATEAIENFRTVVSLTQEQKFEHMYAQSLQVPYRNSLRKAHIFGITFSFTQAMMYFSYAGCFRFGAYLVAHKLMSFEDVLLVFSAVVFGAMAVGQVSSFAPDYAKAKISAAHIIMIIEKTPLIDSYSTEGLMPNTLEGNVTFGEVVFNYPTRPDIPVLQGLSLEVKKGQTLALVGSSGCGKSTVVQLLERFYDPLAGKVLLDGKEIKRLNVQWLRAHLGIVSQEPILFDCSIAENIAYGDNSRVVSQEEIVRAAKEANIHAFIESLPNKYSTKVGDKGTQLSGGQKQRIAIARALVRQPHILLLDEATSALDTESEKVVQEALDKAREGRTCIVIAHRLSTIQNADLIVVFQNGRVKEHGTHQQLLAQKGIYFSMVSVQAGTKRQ

CC(=O)O[C@@]12CO[C@@H]1C[C@H](O)[C@@]1(C)C(=O)[C@H](O)C3=C(C)[C@@H](OC(=O)[C@H](O)[C@@H](NC(=O)OC(C)(C)C)c4ccccc4)C[C@@](O)([C@@H](OC(=O)c4ccccc4)[C@H]21)C3(C)C.O.O.O [DOCETAXEL]
Activity: substrate [+]
